# Source: US10351586B2, “Cytidine derivative dimers and applications thereof” (CHANGZHOU FANGYUAN PHARMACEUTICAL CO., LTD, priority 2014, dated 2019)
# Marks after values point to notes of the source that are not given here.
# Tests used:
# [1] = tested on: HCT-116 human colon cancer xenografts; assay: Tumor growth inhibition of HCT-116 human colon cancer xenografts in nude mice; type: in vivo, Balb/c nude mice; settings: for Relative tumor proliferation rate (T/C %) / Relative tumor volume (RTV) / Tumor growth inhibition rate (TGI %) / Tumor volume of HCT-116 human colon cancer xenografts: single IP injection (QD×1), D1 and D2 400 mg/kg, D3 350 mg/kg, D4 300 mg/kg; for Tumor volume of HCT-116 human colon cancer xenografts: Mean±SEM
# Protocol: 2. Preparation of the test substance was performed by dissolving the test substance using the following solvents:
# 3. Animal experiments were performed. […] Animals were numbered using their tail number.
# 4.1 Tumor cells were human HCT-116 colon cancer cells purchased from the Institute of Cell Biology, Chinese Academy of Sciences (Beijing, China). F-12 medium (containing 10% FBS) was used to culture cells in a carbon dioxide incubator at about 37° C., saturated humidity, under 5% CO2 and 95% air. Before inoculation, cells in logarithmic growth phase were collected. After digested by 0.25% trypsin, the cells were washed with PBS once. The cells were resuspended with serum-free medium and counted. Serum-free medium were used for cell resuspension, until the cell concentration was adjusted to about 3×10^7 cell/mL.
# 4.2 Animal inoculation and grouping were performed.
# The diameters (D) of the tumor nodules were measured three times a week with a circle sizer ruler. In addition, the following formula was applied to calculate the volume of the tumor nodules (V): V=[…](D/2)^3 generally for a spherical shape. Evaluation indexes of antitumor activity were tumor growth inhibition rate TGI (%) and relative tumor proliferation rate T/C (%).
# The calculation formula of TGI was: TGI (%)=(Vcontrol−VTreatment)/Vcontrol)×100%. The relative tumor volume (RTV) was calculated by: RTV=Vt/V0, where V0 is the tumor volume at the time of group administration, and Vt is the tumor volume at the time of measurement.
# The mice were weighed 3 times every week.
# 4.5 Data and statistical analysis were provided.
# [2] = Body weight / toxicity of a single intraperitoneal injection in HCT-116 colon tumor-bearing nude mice; settings: D3 350 mg/kg, D4 300 mg/kg; for Average rate of weight change of the animals / Average weight of the animals: single IP injection (QD×1), D1 and D2 400 mg/kg; for Average weight of the animals: Mean±SEM
# Protocol: Corresponding test substance was weighed and put into a 5 mL glass tube. The test substance was dissolved in ethanol under the stirring by a 5 mm magnetic stirrer. After a complete dissolution, Cremophor EL was added with continuous stirring. Immediately prior to the user of the test substance, the labeled amount of physiological saline was added and stirred.
# Animal experiments were performed. The animals were female Balb/c nude mice at specific pathogen free (SPF) level and were supplied from Shanghai Sippr/BK Lab Animal Ltd. (Shanghai, China). […] These animals were at the age of about 7 weeks to about 9 weeks at the beginning of the experiments and had the weight of about 18 grams to about 22 grams at the beginning of the experiment. The animals had acclimatization duration of about 5 days to about 7 days. Animals were numbered using their tail number. The animal room was maintained at about 23±2° C., 40%-70% humidity, with alternating light and dark every 12 hours.
# 4.2 Animal inoculation and grouping were performed. Under aseptic conditions, each nude mice was injected with 0.1 mL cell suspension into the right hind leg subcutaneously (3×10^6 cell/mouse). When the size of the tumor grew to have a volume of about 60-150 mm^3, nude mice with a similar tumor size and a desirable shape (e.g., with substantially same shape such as a substantially spherical shape, without having irregular shapes or multiple tumors grouped together) were selected and grouped. In the experiment, there were six mice in each group.
# The mice in control group were injected with a mixed solution including ethanol, Cremophor EL and normal saline at a ratio of 5:5:90.
# 4.4 Clinical symptoms were provided. All clinical symptoms of each animal were recorded at the beginning of the experiments and during the experiments. The observation was performed at the same time every day.
# After administration of the test substance, when the weight reduction was >20%, when the animal was dying, or when the tumor volume exceeds about 2800 mm^3, the animal were euthanized by applying CO2. The tumor was separated and weighed, an autopsy was performed, and visual inspection was conducted and recorded on whether there were pathological changes in the organs.
# [3] = D1 400 mg/kg Day 7, D2 400 mg/kg Day 9, D3 350 mg/kg Day 11, D4 300 mg/kg Day 11, single IP
compound,measurement,setting,value
"CCCCOC(=O)Nc1ccn([C@H]2O[C@@H](COC(=O)CCC(=O)OC[C@H]3O[C@@H](n4ccc(NC(=O)OCCCC)nc4=O)C(F)(F)[C@@H]3O)[C@H](O)C2(F)F)c(=O)n1 (stereo in doubt) [Compound D2, 1,5-di-[4-N-(n-butoxycarbonyl)-2′-deoxy-2′,2′-difluoro-cytidine]glutarate]","Relative tumor proliferation rate, minimum",[1]; [3],14.41%
same,"Tumor inhibition rate, maximum",[1]; [3],94.79%
same,Relative tumor proliferation rate (T/C %),[1]; Day 0,0.00%
same,Relative tumor volume (RTV),[1]; Day 0,1.00
same,Tumor growth inhibition rate (TGI %),[1]; Day 0,0.00%
same,Tumor volume of HCT-116 human colon cancer xenografts,[1]; Day 0,53.09 ± 9.33** mm^3
same,Relative tumor proliferation rate (T/C %),[1]; Day 1,50.15%
same,Relative tumor volume (RTV),[1]; Day 1,0.89 ± 0.10
same,Tumor growth inhibition rate (TGI %),[1]; Day 1,71.87%
same,Tumor volume of HCT-116 human colon cancer xenografts,[1]; Day 1,50.78 ± 14.16** mm^3
same,Relative tumor proliferation rate (T/C %),[1]; Day 2,40.78%
same,Relative tumor volume (RTV),[1]; Day 2,0.95 ± 0.15
same,Tumor growth inhibition rate (TGI %),[1]; Day 2,74.81%
same,Tumor volume of HCT-116 human colon cancer xenografts,[1]; Day 2,55.89 ± 18.82** mm^3
same,Relative tumor proliferation rate (T/C %),[1]; Day 4,25.19%
same,Relative tumor volume (RTV),[1]; Day 4,0.73 ± 0.19
same,Tumor growth inhibition rate (TGI %),[1]; Day 4,84.53%
same,Tumor volume of HCT-116 human colon cancer xenografts,[1]; Day 4,45.96 ± 20.25** mm^3
same,Relative tumor proliferation rate (T/C %),[1]; Day 7,16.63%
same,Relative tumor volume (RTV),[1]; Day 7,0.52 ± 0.23
same,Tumor growth inhibition rate (TGI %),[1]; Day 7,91.71%
same,Tumor volume of HCT-116 human colon cancer xenografts,[1]; Day 7,35.87 ± 21.79** mm^3
same,Relative tumor proliferation rate (T/C %),[1]; Day 9,14.41%
same,Relative tumor volume (RTV),[1]; Day 9,0.46 ± 0.17
same,Tumor growth inhibition rate (TGI %),[1]; Day 9,94.79%
same,Tumor volume of HCT-116 human colon cancer xenografts,[1]; Day 9,30.75 ± 16.74** mm^3
same,Relative tumor proliferation rate (T/C %),[1]; Day 11,16.77%
same,Relative tumor volume (RTV),[1]; Day 11,0.87 ± 0.35
same,Tumor growth inhibition rate (TGI %),[1]; Day 11,94.13%
same,Tumor volume of HCT-116 human colon cancer xenografts,[1]; Day 11,57.29 ± 33.0** mm^3
same,Relative tumor proliferation rate (T/C %),[1]; Day 14,18.33%
same,Relative tumor volume (RTV),[1]; Day 14,1.80 ± 0.69
same,Tumor growth inhibition rate (TGI %),[1]; Day 14,91.88%
same,Tumor volume of HCT-116 human colon cancer xenografts,[1]; Day 14,116.87 ± 66.85** mm^3
same,Relative tumor proliferation rate (T/C %),[1]; Day 16,21.64%
same,Relative tumor volume (RTV),[1]; Day 16,2.66 ± 0.88
same,Tumor growth inhibition rate (TGI %),[1]; Day 16,90.63%
same,Tumor volume of HCT-116 human colon cancer xenografts,[1]; Day 16,169.73 ± 88.15** mm^3
same,Relative tumor proliferation rate (T/C %),[1]; Day 18,21.99%
same,Relative tumor volume (RTV),[1]; Day 18,4.20 ± 1.02
same,Tumor growth inhibition rate (TGI %),[1]; Day 18,86.88%
same,Tumor volume of HCT-116 human colon cancer xenografts,[1]; Day 18,262.10 ± 111.14** mm^3
same,Relative tumor proliferation rate (T/C %),[1]; Day 21,34.57%
same,Relative tumor volume (RTV),[1]; Day 21,8.09 ± 1.52
same,Tumor growth inhibition rate (TGI %),[1]; Day 21,79.99%
same,Tumor volume of HCT-116 human colon cancer xenografts,[1]; Day 21,489.13 ± 174.91 mm^3
same,Relative tumor proliferation rate (T/C %),[1]; Day 23,42.87%
same,Relative tumor volume (RTV),[1]; Day 23,8.48 ± 1.37
same,Tumor growth inhibition rate (TGI %),[1]; Day 23,78.74%
same,Tumor volume of HCT-116 human colon cancer xenografts,[1]; Day 23,501.98 ± 170.25 mm^3
same,Relative tumor proliferation rate (T/C %),[1]; Day 25,44.51%
same,Relative tumor volume (RTV),[1]; Day 25,9.62 ± 1.48
same,Tumor growth inhibition rate (TGI %),[1]; Day 25,77.96%
same,Tumor volume of HCT-116 human colon cancer xenografts,[1]; Day 25,569.05 ± 189.18 mm^3
same,Relative tumor proliferation rate (T/C %),[1]; Day 28,56.94%
same,Relative tumor volume (RTV),[1]; Day 28,12.03 ± 1.50
same,Tumor growth inhibition rate (TGI %),[1]; Day 28,74.35%
same,Tumor volume of HCT-116 human colon cancer xenografts,[1]; Day 28,689.78 ± 203.52 mm^3
same,Relative tumor proliferation rate (T/C %),[1]; Day 30,63.87%
same,Relative tumor volume (RTV),[1]; Day 30,15.85 ± 1.92
same,Tumor growth inhibition rate (TGI %),[1]; Day 30,67.91%
same,Tumor volume of HCT-116 human colon cancer xenografts,[1]; Day 30,900.52 ± 250.44 mm^3
same,Inhibition of growth of HCT-116 human colon cancer xenografts (in words),"[1]; single IP injection, 300-400 mg/kg",higher tumor inhibition rates
same,Average rate of weight change of the animals,[2]; Day 0,0.00%
same,Average weight of the animals,[2]; Day 0,19.87 ± 0.25 g
same,Average rate of weight change of the animals,[2]; Day 1,−0.08 ± 0.74%
same,Average weight of the animals,[2]; Day 1,19.85 ± 0.28 g
same,Average rate of weight change of the animals,[2]; Day 2,−8.54 ± 1.31 %
same,Average weight of the animals,[2]; Day 2,18.17 ± 0.31 g
same,Average rate of weight change of the animals,[2]; Day 4,−10.63 ± 2.13 %
same,Average weight of the animals,[2]; Day 4,17.75 ± 0.44 g
same,Average rate of weight change of the animals,[2]; Day 7,−6.98 ± 1.43%
same,Average weight of the animals,[2]; Day 7,18.48 ± 0.40 g
same,Average rate of weight change of the animals,[2]; Day 9,0.21 ± 1.42%
same,Average weight of the animals,[2]; Day 9,19.92 ± 0.45 g
same,Average rate of weight change of the animals,[2]; Day 11,2.72 ± 1.85%
same,Average weight of the animals,[2]; Day 11,20.42 ± 0.53 g
same,Average rate of weight change of the animals,[2]; Day 14,4.87 ± 2.08 %
same,Average weight of the animals,[2]; Day 14,20.85 ± 0.60 g
same,Average rate of weight change of the animals,[2]; Day 16,6.32 ± 1.65 %
same,Average weight of the animals,[2]; Day 16,21.13 ± 0.51 g
same,Average rate of weight change of the animals,[2]; Day 18,8.83 ± 1.43 %
same,Average weight of the animals,[2]; Day 18,21.63 ± 0.51 g
same,Average rate of weight change of the animals,[2]; Day 21,4.22 ± 1.23 %
same,Average weight of the animals,[2]; Day 21,20.72 ± 0.46 g
same,Average rate of weight change of the animals,[2]; Day 23,3.66 ± 1.05 %
same,Average weight of the animals,[2]; Day 23,20.60 ± 0.40 g
same,Average rate of weight change of the animals,[2]; Day 25,5.07 ± 1.44%
same,Average weight of the animals,[2]; Day 25,20.88 ± 0.48 g
same,Average rate of weight change of the animals,[2]; Day 28,1.57 ± 1.50%
same,Average weight of the animals,[2]; Day 28,20.18 ± 0.44 g
same,Average rate of weight change of the animals,[2]; Day 30,2.28 ± 1.75%
same,Average weight of the animals,[2]; Day 30,20.33 ± 0.55 g
same,Toxicity in tumor-bearing mice (in words),"[2]; single IP injection, D2 400 mg/kg, judged from body weight versus control",no toxicity
